This passage reports T/C results from PubChem BioAssay AID330 (DTP/NCI, 2004).

This assay concerns P388 leukemia ip, CD2F1 mice, survival T/C. The experiment in a line: NCI In Vivo Anticancer Drug Screen. Data for tumor model P388 Leukemia (intraperitoneal) in CD2F1 (CDF1) mice. Conditions: endpoint: median survival time, higher = longer survival. Summed up: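 Mice carrying the transplanted tumor received test compound or vehicle. Survival was recorded in each group, and the value is the treated-group measurement divided by that of the vehicle-treated control group.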

[1] abbreviates: dose: 50.0 mg/kg/injection, schedule: Q01DX005 (ip), vehicle: Klucel (hydroxypropylcellulose) (HPC).
Where [2] appears, read: dose: 100.0 mg/kg/injection, schedule: Q01DX005 (ip), vehicle: Klucel (hydroxypropylcellulose) (HPC).
Setting [3] is: dose: 200.0 mg/kg/injection, schedule: Q01DX005 (ip), vehicle: Klucel (hydroxypropylcellulose) (HPC).
Setting [4] is: dose: 100.0 mg/kg/injection, schedule: Q04DX003 (ip), vehicle: saline with Tween-80.
The mark [5] stands for this setting: dose: 50.0 mg/kg/injection, schedule: Q01DX009 (ip), vehicle: saline with Tween-80.
The mark [6] stands for this setting: dose: 50.0 mg/kg/injection, schedule: Q01DX009 (ip), vehicle: saline.
The mark [7] stands for this setting: dose: 100.0 mg/kg/injection, schedule: Q01DX009 (ip), vehicle: saline.
Where [8] appears, read: dose: 200.0 mg/kg/injection, schedule: Q01DX009 (ip), vehicle: saline.
Where [9] appears, read: dose: 60.0 mg/kg/injection, schedule: Q01DX005 (ip), vehicle: saline with Tween-80.
Setting [10] is: dose: 120.0 mg/kg/injection, schedule: Q01DX005 (ip), vehicle: saline with Tween-80.
The mark [11] stands for this setting: dose: 240.0 mg/kg/injection, schedule: Q01DX005 (ip), vehicle: saline with Tween-80.
Where [12] appears, read: dose: 50.0 mg/kg/injection, schedule: Q01DX005 (ip), vehicle: saline with Tween-80.
Setting [13] is: dose: 100.0 mg/kg/injection, schedule: Q01DX005 (ip), vehicle: saline with Tween-80.
The mark [14] stands for this setting: dose: 200.0 mg/kg/injection, schedule: Q01DX005 (ip), vehicle: saline with Tween-80.

Values joined by “and” are separate entries in the source; they are usually repeats but may differ in a detail not shown here. Equal entries are not always repeated. Toxic doses and inconclusive results are not listed.

Take `CCOC(=O)c1cc(OC(C)=O)c2c(ccc3ccccc32)c1C`: the T/C (dose: 100.0 mg/kg/injection, schedule: Q01DX009 (ip), vehicle: Klucel (hydroxypropylcellulose) (HPC)) was 95 % of control; the T/C (dose: 200.0 mg/kg/injection, schedule: Q01DX009 (ip), vehicle: Klucel (hydroxypropylcellulose) (HPC)) is 90 % of control; the T/C (dose: 400.0 mg/kg/injection, schedule: Q01DX009 (ip), vehicle: Klucel (hydroxypropylcellulose) (HPC)) was 95 % of control.
In the case of `CCOC(=O)c1ccc(NC(=O)Nc2nc(C)cs2)cc1`, the T/C was 104 % of control and 106 % of control (dose: 12.5 mg/kg/injection, schedule: Q01DX009 (ip), vehicle: distilled water + Tween-80); 99 % of control and 107 % of control (dose: 25.0 mg/kg/injection, schedule: Q01DX009 (ip), vehicle: distilled water + Tween-80); 109 % of control and 111 % of control (dose: 50.0 mg/kg/injection, schedule: Q01DX009 (ip), vehicle: distilled water + Tween-80); 118 % of control (dose: 100.0 mg/kg/injection, schedule: Q01DX009 (ip), vehicle: distilled water + Tween-80).
Turning to `FC(F)(F)C1(C(F)(F)F)O[P+](c2ccccc2)(c2ccccc2)c2ccccc21`, the T/C is, setting by setting: under setting [1], 100 % of control; under setting [2], 110 % of control; under setting [3], 102 % of control.
For `Cc1cc2ncn(C(=O)Nc3ccccc3)c2cc1C`, the T/C is, setting by setting: under setting [4], 100 % of control; (dose: 200.0 mg/kg/injection, schedule: Q04DX003 (ip), vehicle: saline with Tween-80) 90 % of control; (dose: 400.0 mg/kg/injection, schedule: Q04DX003 (ip), vehicle: saline with Tween-80) 90 % of control.
For `Cn1c2c(c3cc(Cl)cc(Cl)c31)-c1ncncc1CC2`, the T/C by setting is: (dose: 100.0 mg/kg/injection, schedule: Q04DX002 (ip), vehicle: saline with Tween-80) 98 % of control; (dose: 200.0 mg/kg/injection, schedule: Q04DX002 (ip), vehicle: saline with Tween-80) 98 % of control; (dose: 400.0 mg/kg/injection, schedule: Q04DX002 (ip), vehicle: saline with Tween-80) 95 % of control.
Consider `O=C(O)c1cc(=O)n(CCCCCCn2c(=O)cc(C(=O)O)[nH]c2=O)c(=O)[nH]1`, for which the T/C was 98 % of control under setting [5]; 104 % of control (dose: 100.0 mg/kg/injection, schedule: Q01DX009 (ip), vehicle: saline with Tween-80); 111 % of control (dose: 200.0 mg/kg/injection, schedule: Q01DX009 (ip), vehicle: saline with Tween-80).
For `O=C(C[N+]12CN3CN(CN(C3)C1)C2)c1ccc2c(c1)CCCC2`, the T/C was 100 % of control under setting [1], 103 % of control under setting [2] and 106 % of control under setting [3].
As for `CC(=O)/C=C/N1CCOCC1`, the T/C under setting [6] is 119 % of control, the T/C under setting [7] is 98 % of control and the T/C under setting [8] is 103 % of control.
As to `CC(=O)c1nc2c(N)nc(N)nc2nc1C`, the T/C (dose: 25.0 mg/kg/injection, schedule: Q04DX003 (ip), vehicle: saline with Tween-80) was 96 % of control; the T/C (dose: 50.0 mg/kg/injection, schedule: Q04DX003 (ip), vehicle: saline with Tween-80) is 96 % of control; the T/C under setting [4] was 96 % of control.
As for `CC(=O)OCC1OC(n2ccc(N)nc2=O)C(OC(C)=O)C1OC(C)=O` (stereo not given), the T/C runs as follows: under setting [7], 162 % of control; under setting [8], 178 % of control.
Regarding `CCOC(=O)C(C)NO` (stereo not given), the T/C reads like this: under setting [6], 97 % of control; under setting [7], 94 % of control.
Take `OCN(CO)c1nc(N(CO)CO)nc(N(CO)CO)n1`: the T/C was 109 % of control (dose: 6.3 mg/kg/injection, schedule: Q01DX009 (ip), vehicle: saline with Tween-80); 106 % of control (dose: 12.5 mg/kg/injection, schedule: Q01DX009 (ip), vehicle: saline with Tween-80); 108 % of control under setting [5].
`CCOC(=O)c1oc2cc(O)ccc2c(=O)c1-c1ccc(OC)c(OC)c1`: the T/C is, setting by setting: under setting [9], 96 % of control; under setting [10], 87 % of control; under setting [11], 86 % of control.
On to `Cc1cn(CCCCCCOc2c3occc3cc3ccc(=O)oc23)c(=O)[nH]c1=O`, for which the T/C under setting [1] is 92 % of control; the T/C (dose: 50.0 mg/kg/injection, schedule: Q04DX002 (ip), vehicle: Klucel (hydroxypropylcellulose) (HPC)) is 98 % of control; the T/C (dose: 100.0 mg/kg/injection, schedule: Q04DX002 (ip), vehicle: Klucel (hydroxypropylcellulose) (HPC)) was 104 % of control; the T/C under setting [3] was 88 % of control; the T/C (dose: 200.0 mg/kg/injection, schedule: Q04DX002 (ip), vehicle: Klucel (hydroxypropylcellulose) (HPC)) was 96 % of control.
On to `O=C1OC(c2ccccc2)(c2ccccc2)CC1C=C(c1ccccc1)c1ccccc1` (stereo not given), for which the T/C reads like this: (dose: 25.0 mg/kg/injection, schedule: Q01DX005 (ip), vehicle: saline with Tween-80) 92 % of control; under setting [12], 89 % of control and 94 % of control; under setting [13], 89 % of control.
For the compound `CCOC(=O)C1(CN(C)c2ccccc2)C(C(C)=O)=CNc2c(C#N)cnn21` (stereo not given), the T/C under setting [12] was 99 % of control, the T/C under setting [13] was 98 % of control and the T/C under setting [14] was 106 % of control.
On to `O=C(NCc1ccco1)Nc1c(Cl)cc(Cl)cc1Cl`, for which the T/C under setting [9] is 103 % of control, the T/C under setting [10] was 100 % of control and the T/C under setting [11] is 100 % of control.
In the case of `O=C1C=C(c2ccccc2)S(=O)(=O)c2cc(O)ccc21`, the T/C is 119 % of control under setting [12], 114 % of control under setting [13] and 110 % of control under setting [14].
In the case of `CN1C(=O)N(C)[C@@H]2CC(=O)c3ccc(C(F)(F)F)cc3N2C1=O`, the T/C is 101 % of control (dose: 60.0 mg/kg/injection, schedule: Q01DX005 (ip), vehicle: Klucel (hydroxypropylcellulose) (HPC)); 107 % of control (dose: 120.0 mg/kg/injection, schedule: Q01DX005 (ip), vehicle: Klucel (hydroxypropylcellulose) (HPC)); 103 % of control (dose: 240.0 mg/kg/injection, schedule: Q01DX005 (ip), vehicle: Klucel (hydroxypropylcellulose) (HPC)).
Take `O=C(Cc1nc2cc(Cl)c(Cl)cc2nc1CC(=O)c1ccncc1)c1ccncc1`: the T/C is 93 % of control under setting [9], 90 % of control under setting [10] and 90 % of control under setting [11].
On to `CC1CCC2C(C)C3C(CC4C5CCC6CC(O)CCC6(C)C5CCC43CO)N2C1` (stereo not given), for which the T/C is 101 % of control under setting [1], 108 % of control under setting [2] and 113 % of control under setting [3].
As for `CC(C)(C)OC(=O)N[C@@H](CNOCc1ccccc1)C(N)=O`, the T/C under setting [12] is 92 % of control, the T/C under setting [13] is 92 % of control and the T/C under setting [14] is 86 % of control.
As for `CCOC(=O)N1CC2C=CC1C(C(C)=O)C2` (stereo not given), the T/C by setting is: under setting [6], 110 % of control; under setting [7], 109 % of control; under setting [8], 109 % of control.
